In publication PMC7735563, “5,5-Dialkylluciferins are thermal stable substrates for bioluminescence-based detection systems” (PLoS ONE, 2020):

Test system: T1, Ultra-Glo™ luciferase
T1 construct: gene Firefly luciferase; HisLink purified; starting enzyme also obtained from Promega
Assay: luminescence, Michaelis-Menten
Format: biochemical
Settings: 1 mM ATP, Bright-Glo buffer, 25 °C
Excerpt: luminescence, Michaelis-Menten on Ultra-Glo™ luciferase

| Km [µM] | SMILES |
| --- | --- |
| 1.71 | O=C(O)C1N=C(c2nc3ccc(O)cc3s2)SC12CC2 (racemic) [III-b, 5-(6-Hydroxybenzo[d]thiazol-2-yl)-4-thia-6-azaspiro[2.4]hept-5-ene-7-carboxylic acid] |
| 7.47 | CC1(C)SC(c2nc3ccc(O)cc3s2)=NC1C(=O)O (racemic) [III-a, 2-(6-Hydroxybenzo[d]thiazol-2-yl)-5,5-dimethyl-4,5-dihydrothiazole-4-carboxylic acid] |

| SMILES | Km [µM] |
| --- | --- |
| O=C(O)[C@H]1CSC(c2nc3ccc(O)cc3s2)=N1 [LH2, D-luciferin] | 0.49 |
